These results are taken from patent US20250361227A1, “INHIBITORS OF FLI1 AND ERG” (UNIVERSITY OF VIRGINIA PATENT FOUNDATION, priority 2022, published 2025).

The target in one test is T1, ERG (Homo sapiens, UniProt P11308).
T1 sequence (P11308 1-462 isoform P11308-1): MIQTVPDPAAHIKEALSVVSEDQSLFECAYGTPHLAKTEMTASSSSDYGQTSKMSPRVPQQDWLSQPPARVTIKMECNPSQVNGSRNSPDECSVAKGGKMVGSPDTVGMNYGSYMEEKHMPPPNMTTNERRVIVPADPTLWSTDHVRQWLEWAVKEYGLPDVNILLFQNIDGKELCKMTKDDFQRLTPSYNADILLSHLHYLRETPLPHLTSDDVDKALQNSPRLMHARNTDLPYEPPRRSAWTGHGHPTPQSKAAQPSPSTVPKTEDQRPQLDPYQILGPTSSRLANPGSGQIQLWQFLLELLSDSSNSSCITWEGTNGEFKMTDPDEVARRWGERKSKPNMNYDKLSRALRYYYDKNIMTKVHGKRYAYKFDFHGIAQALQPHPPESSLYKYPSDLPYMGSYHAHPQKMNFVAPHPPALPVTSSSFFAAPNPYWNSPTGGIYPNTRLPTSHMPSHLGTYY
As to the kind of experiment: Time-dependent ERG-DNA fluorescence polarization assay. Conditions: time-dependent inhibition of ERG-DNA binding, irreversible inhibitor. The method, then:
To assay such compounds time-dependent inhibition of ERG-DNA binding was recorded using a fluorescence polarization (FP) based assay and the rates were fitted to derive KI and kinact for the compounds which were ranked based on the kinact/KI values as has been described previously.
These compounds were assayed using the time-dependent ERG-DNA assay described above. Importantly, time-dependent inhibition was observed, a hallmark of irreversible inhibitors. […] ERG inhibitors show time-dependent inhibition characteristics of irreversible inhibitors based on the following formula: […]
Kobs values were determined from the initial slope for the first 15 minutes. NMR chemical shift perturbation data was consistent with 2 binding sites on ERG. FIG. 14A and FIG. 14B show selected changes in chemical shift for resonances in the ^15N-^1H HSQC NMR spectrum of ERGi upon addition of KK-36-25.
(Polarisation of emitted light reports the rotation of a fluorescent probe.)

For test [1], the system named is Ewing's sarcoma cell lines. Nature of the test: Growth of Ewing's sarcoma cell lines. Conditions: read-out: IC50 values for inhibition of the growth. The test is classed as cell-based. The method, then:
(§1) The compounds of formula (I), in particular those in Table 3, were tested for their effects on the growth of Ewing sarcoma cell lines as well as a rhabdomyosarcoma cell line as a control. The inhibitors are active against Ewing sarcoma cell lines with sub μM EC50 values but not active with the rhabdomyosarcoma cell line. The relative activity of the compounds in the biochemical assay was also observed in the cellular data, consistent with an on-target mechanism of action. […] The inhibitor decreases expression of the two genes activated by EWS-FL11 and activates the expression of the gene repressed by EWS-FLI1, consistent with an on-target mechanism of action. The inhibitors have also been evaluated across a panel of leukemia cell lines and see selective activity on cell lines with an ERG and/or FLI1 dependence.
Evaluation of ERG inhibitors on Ewing's sarcoma cell lines. FIGS. 16A-16D show the results of treatment of Ewing's sarcoma cell lines with the bivalent ERG inhibitors. […] Ewing's sarcoma has EWS-FLI1 and EWS-ERG fusions (FLI1 is highly homologous to ERG). ERG inhibitors show submicromolar EC50 values for Ewing's sarcoma cell lines. […] Importantly, for the unrelated rhabdomyosarcoma cell line included in this panel, there was minimal inhibition of growth.

The subject of another test is leukemia cell lines. As to the kind of experiment: Panel of leukemia cell lines. Type of test: cell-based. Conditions: Jurkat, RS4-11, Kasumi, K562, THP-1. How it is done:
as §1
ERG inhibitor effects on leukemia cell lines. FIG. 17A-17D and FIG. 18A-18C show the effects of the ERG inhibitor on several leukemia cell lines. […] ERG inhibitors show efficacy against T-ALL cell line (Jurkat) and selective activity against specific leukemia cell lines. […] As expected from previous literature indicating a strong dependence on ERG for T-ALL, the T-ALL cell line Jurkat is quite sensitive to the ERG inhibitors (sub μM IC50 values). […]

SMILES strings stand for the structures.

With `Cc1ccc(-c2nc3cc(Cl)c(NC(=O)CCOCCn4cc(COCCOCCOc5ccc(S(=O)(=O)C6CCN(C(=O)/C=C/c7cc8ccccc8o7)C6)cc5)nn4)cc3o2)cc1` (stereo not drawn) [KK-36-25], the Ki on ERG came to 6.3 µM. The half-maximal inhibitory concentration (IC50) in test [1] was at most 1 µM. Also, the “selectivity across leukemia cell lines” value in the test on leukemia cell lines is listed as “selective for Leukemia cell lines dependent on ERG”.

A word on the IC50: it is the midpoint of a concentration-inhibition curve.
